Laboratory results: paper PMC10967270, “Intrapulmonary and Systemic Pharmacokinetics of Colistin Following Nebulization of Low-Dose Colistimethate Sodium in Patients with Ventilator-Associated Pneumonia Caused by Carbapenem-Resistant Acinetobacter baumannii” (Antibiotics, 2024)
Positions of bridges follow the written chain, without caps; N, C: chain ends. Non-standard residues stand in square brackets, D forms with d. Residues, ends and D or L forms follow the SMILES beside them. *: point of attachment. X1 = CC[C@H](C)CCCCC(=O)*; Dab = NCC[C@H](N)C(=O)O

Columns and labels:
[1] = cited from earlier work
Procedure: We investigated whether the fAUC values of individual patients were associated with clinical or microbiological outcomes (Table 3). Using individual estimates of CL derived from the final PK model, we calculated the steady-state fAUC for each patient when a total of 3.75 MIU (=300 mg CMS = 112.5 mg CBA) was administered at 6 h intervals four times a day, using the formula AUC = DOSE/CL. The unbound fraction of colistin was assumed to be 10% [25] in the ELF based on the study by Gkoufa et al. and 34% in the plasma based on the study by Mohamed et al.. Gkoufa et al. presented concentrat ...

[2] = Population PK model of colistin in epithelial lining fluid (NONMEM, one-compartment, Weibull absorption); assay type: in vivo, human; conditions: ELF
Excerpt: The time courses of colistin concentrations in ELF and plasma were best described using one-compartment models with a Weibull absorption process. The following structural PK model described by two differential equations was applied:(1) dA1/dt=−WB×A1 (2) WB=KAMAX×1−e^−RA×time^GAM (3) dA2/dt=WB×A1−CL/V×A2 where A1 and A2 represent the amounts of colistin in ELF and plasma, and WB denotes the Weibull absorption function with parameters KAMMA, RA, and GAM. KAMMA determines the function’s maximum value, often representing the maximum rate of absorption or event occurrence. RA, the shape parameter, controls the rate of change over time, influencing the distribution’s slope and how quickly it increases or decreases. GAM adjusts the time variable’s exponent, controlling the rate of growth or decline over time, thereby affecting the distribution’s asymmetry and indicating the curve’s speed in reaching its peak or declining. CL and V are the total clearance and volume of distribution for colistin, respectively. The estimated CL and V in Table 2 were expressed as CL/fm and V/fm, respectively, where fm represents the fraction of CMS metabolized to colistin, a value that cannot be estimated from our study data. No significant covariates influencing the PK parameters were identified. The estimated PK parameters for the final PK models are presented in Table 2, while individual fit plots for colistin in ELF and plasma can be found in Figure 2 and Figure 3, respectively. Diagnostic goodness-of-fit plots for the final PK model of colistin in ELF and plasma are shown in Supplementary Materials Figures S1 and S2, respectively. […] With the observed 10th, 50th, and 90th percentiles mostly within the 95% confidence intervals of the simulated percentiles, the final PK models effectively explained the observed concentrations and had good predictive performance.
A population PK analysis of colistin in ELF and plasma was conducted using NONMEM 7.5.0 (ICON Clinical Research LLC, North Wales, PA, USA). The analysis used first-order conditional estimation with interaction (FOCEI) to estimate both observed fixed and unexplained random effect parameters. The FOCEI allows the inter-individual variability (IIV) in the PK parameters to interact with the residual unexplained variability (RUV) in the observed concentrations. The RUV arises from factors such as within-subject variability, assay error, and potential misspecification of the model. ADVAN1 TRANS2 and ADVAN3 TRANS4 from the NONMEM PK model library were used to construct the single- and two-compartment models, respectively. Except for drug inhalation, all PK processes were assumed to follow first-order kinetics. Various absorption models, including zero-order, first-order, Weibull, and transit absorption models, were investigated to describe the absorption processes of colistin.
The representation of each PK parameter was given by θi = θ × exp(ηi), where θ stands for the typical value of the PK parameter, θi represents an individual PK parameter, and ηi is a random variable associated with IIV. It was assumed that IIV follows a normal distribution with a mean of 0 and a variance of ω^2. For RUV, which was assumed to be normally distributed with a mean of 0 and a variance of σ^2; additive, proportional, and combined additive and proportional error models were investigated.
Models were assessed and chosen based on NONMEM objective function values (OFVs), the precision of parameter estimates (relative standard errors), the shrinkage of IIV, and diagnostic goodness-of-fit plots. In the log-likelihood ratio test, if the decrease in OFV (ΔOFV) is greater than 3.84 for models with one additional degree of freedom or greater than 5.99 for models with two additional degrees of freedom, it is considered statistically significant at p < 0.05, indicating an improvement in the model. […]

A. baumannii [3] = conditions: among 2879 isolates, EUCAST; cited from earlier work
A. baumannii [4] = conditions: murine lung infection model; cited from earlier work

CC[C@H](C)CCCCC(=O)N[C@@H](CCN)C(=O)N[C@H](C(=O)N[C@@H](CCN)C(=O)N[C@H]1CCNC(=O)[C@H]([C@@H](C)O)NC(=O)[C@H](CCN)NC(=O)[C@H](CCN)NC(=O)[C@H](CC(C)C)NC(=O)[C@@H](CC(C)C)NC(=O)[C@H](CCN)NC1=O)[C@@H](C)O [colistin] (X1-[Dab]T[Dab][Dab][Dab][dL]L[Dab][Dab]T; lactam 4-C)
Unbound fraction of colistin in the ELF ([1]; assumed, rounded from 0.099 used in simulations by Gkoufa et al.): 10% | Unbound fraction of colistin in plasma, median ([1]; equilibrium dialysis, Mohamed et al.): 34% | CL/fm, bootstrap median (95% CI) ([2]; 2000 bootstrap samples): 0.529 (0.352–0.77) mL/min | KAMAX, bootstrap median (95% CI) ([2]; 2000 bootstrap samples): 0.533 (0.335–0.973) | V/fm, bootstrap median (95% CI) ([2]; 2000 bootstrap samples): 24.3 (11.0–46.7) mL | KAMAX (maximum rate of absorption), estimate ([2]; Weibull absorption): 0.531 | CL/fm, estimate ([2]; final PK model): 0.541 mL/min | V/fm, estimate ([2]; final PK model): 23.0 mL | Isolates with a colistin MIC of 1 mg/L, number (%) (A. baumannii [3]): 1451 (50.4%) | Isolates with a colistin MIC of 2 mg/L, number (%) (A. baumannii [3]): 539 (18.7%) | Isolates with a colistin MIC of 4 mg/L, number (%) (A. baumannii [3]): 54 (1.88%) | fAUC/MIC target values for a 2 log10 kill (A. baumannii [4]): 22.5–95.0 mg/L·h
